Source: patent US8324427B2, “Substances analogous to MK8383 and agricultural and horticultural disease control agents” (Meiji Seika Kaisha, Ltd., priority 2008, dated 2012)

Legend:
[1] = Evaluation of photostability (residual ratio after exposure to light); format: physicochemical; details: dry film exposed to sunlight lamp 24 hr, 25° C., humidity 60%, 30,000 lux, UV 300 to 400 μW/cm^2; HPLC; 0 hr = 100%
Method: The compounds obtained in Examples 1 to 3 were dissolved in acetone, and the concentration of the compounds was adjusted to 200 μg/mL (100 μg/mL for the compound of Example 3) to give test solutions. The photostability was determined by measuring the residual ratio of compound after exposure to light. The residual ratio was calculated by the following method. The test solution (500 μL) was dispensed in a glass Petri dish having a diameter of 5 cm, and the solvent was removed by evaporation under light shielding conditions to form a dry film. The dry film was exposed to a sunlight lamp within a chamber (temperature 25° C., humidity 60%) and was recovered 24 hr after the start of the exposure. The exposed film was washed with 500 μL of methanol and was analyzed by HPLC (manufactured by Nihon Waters K.K.). The residual ratio (concentration ratio after the elapse of each hour when the residual ratio at 0 hr was presumed to be 100%) was calculated by regarding the peak area as the concentration of the compound.

Botrytis cinerea [2] = experiment: Evaluation of control effect (preventive value) on cabbage leaf discs; format: in vivo; details: 100 ppm test solution sprayed on cabbage leaf discs; Botrytis cinerea spore inoculation; three days after the infection
Method: The compounds obtained in Examples 1 to 3 were dissolved in acetone to bring the concentration of the compounds to 1 mg/mL. Ten-fold diluted Neoesterin (manufactured by KUMIAI CHEMICAL INDUSTRY CO., LTD.) (1 μL) was added to 20 μL of the solutions. Further, 180 μL of deionized water was added thereto to regulate the concentration to 100 ppm to prepare test solutions. The control effect was measured by measuring the preventive value of each of the test solutions. The preventive value was calculated by the following method. At the outset, leaves cut by a leaf punch off from the leaves at the third and fourth stages of cabbage were allowed to stand still on a multi-well plate. An appropriate amount of the test solution was sprayed followed by air drying. Next, a spore suspension (2.0×10^5 cells/mL) of Botrytis cinerea was prepared as an inoculating microorganism liquor and was inoculated by spraying in an amount of 20 mL per 7 to 10 multi-well plate. Infection with Botrytis cinerea was carried out in a light shielding chamber (temperature 21° C., humidity about 100%), and the preventive value was calculated three days after the infection. […] 0; No pathogenesis was found. 1; Slight pathogenesis was found. 2; Control effect was found as compared with untreated plot, although diseases were developed. 3; Phathogenesis equivalent to that in untreated plot was found. [formula]

Pyricularia oryzae = format: cell-based; set-up: key to the marks not given beside the values; details: final concentration 12.5 ppm, 3 days
Botrytis cinerea [3] = experiment: Antimicrobial activity test (extension of hypha); format: cell-based; set-up: key to the marks not given beside the values; details: final concentration 12.5 ppm, 3 days
[4] = test system: Colletotrichum lagenarium; experiment: Antimicrobial activity test (extension of hypha); format: cell-based; set-up: key to the marks not given beside the values; details: final concentration 12.5 ppm, 3 days
Alternaria kikutiana = experiment: Antimicrobial activity test (extension of hypha); format: cell-based; set-up: key to the marks not given beside the values; details: final concentration 12.5 ppm, 3 days
Cercospora beticola = experiment: Antimicrobial activity test (extension of hypha); format: cell-based; set-up: key to the marks not given beside the values; details: final concentration 12.5 ppm, 3 days
Rhizoctonia solani = experiment: Antimicrobial activity test (extension of hypha); format: cell-based; set-up: key to the marks not given beside the values; details: final concentration 12.5 ppm, 3 days
Leptosphaeria nodorum = experiment: Antimicrobial activity test (extension of hypha); format: cell-based; set-up: key to the marks not given beside the values; details: final concentration 12.5 ppm, 3 days

SMILES	Residual ratio after 24 hr [1] [%]	Preventive value (Botrytis cinerea [2])	Inhibition of extension (Pyricularia oryzae)	Inhibition of extension (Botrytis cinerea [3])	Inhibition of extension [4]	Inhibition of extension (Alternaria kikutiana)	Inhibition of extension (Cercospora beticola)	Inhibition of extension (Rhizoctonia solani)	Inhibition of extension (Leptosphaeria nodorum)
C/C=C(\C)[C@H]1[C@@H](/C=C/C=C/C(=O)O)[C@H]2[C@@H](C[C@@H]1C)[C@@H](O)CC[C@@H]2C [Compound of Example 2, (2E,4E)-5-{(1S,4S,4aS,5S,6R,7S,8aR)-6-[(E)-but-2-en-2-yl]-decahydro-1-hydroxy-4,7-dimethylnaphthalen-5-yl}penta-2,4-dienoic acid]	108	100	–	–	–	–	–	–	–
C/C=C(\C)[C@H]1[C@@H](/C=C/C=C/C(=O)O)[C@H]2[C@@H]([C@H]3C[C@]31C)[C@@H](O)CC[C@@H]2C [Compound of Example 1, (2E,4E)-5-{(1aR,2R,3S,3aS,4S,7S,7aS,7bR)-2-[(E)-but-2-en-2-yl]-decahydro-7-hydroxy-1a,4-dimethyl-1H-cyclopropa[a]naphthalen-3-yl}penta-2,4-dienoic acid]	100	92	–	–	–	–	–	–	–
C/C=C(/C)[C@H]1[C@@H](/C=C/C=C/C(=O)O)[C@H]2[C@@H](C[C@@H]1C)[C@@H](O)CC[C@@H]2C [Compound of Example 3, (2E,4E)-5-{(1S,4S,4aS,5S,6R,7S,8aR)-6-[(Z)-but-2-en-2-yl]-decahydro-1-hydroxy-4,7-dimethylnaphthalen-5-yl}penta-2,4-dienoic acid]	95	100	++	+++	++	++	+++	+++	++
